# Assay results as given in patent US20070099259A1, “ELECTROCHEMICAL ASSAY FOR THE IDENTIFICATION OF MICROORGANISMS” (RAPID LABORATORY MICROSYSTEMS INC., priority 2003, published 2007).
# Like-named read-outs stand apart in the source and are kept apart here.
# Columns and labels:
# [1] = test system: Staphylococcus aureus ATCC 6538P; assay: Respiration assay (Example 1), electrochemical ferricyanide/DCIP mediator consumption; assay type: cell-based; details: effector 10 mM; for slope: 5 μM DCIP, 50 mM ferricyanide, 35° C.; for normalized slope: area normalized; for relative activity: buffer set as 100%
# Method: (§1) The ferricyanide solution is added so that the final ferricyanide concentrations is 50 mM.
# (§2) The bacterial suspensions were adjusted to a MacFarland Standard of 5.0 (5.0×10sup.8 cfu/mL) or an optical density of 1.2 measured at 625 nm and cell growth was stopped by cooling the bacterial suspension for a minimum of 15 min in an ice-bath.
# P. vulgaris ATCC6380 = assay: Relative respiratory activity with 22 effectors (Example 3); assay type: cell-based, Proteus vulgaris
# Description: (§3) In this example, each microorganism is subjected to 22 different effector compounds in addition to control measurements. […] For each microorganism, duplicate measurements were made of 22 different effector compounds. In addition, duplicate measurements were made a control test containing no effector compound. One additional measurement was made of a control solution containing the microorganism with ferricyanide but without effector or DCIP.
# (§4) In this example, each normalized data set containing duplicate measurements for each of 22 effector compounds is referenced to the duplicate internal controls to allow batch-to-batch comparison. The obtained signals of charge per unit electrode area for the duplicate control measurements are averaged and set at 100% respiratory cycle activity. […] The data set used to generate pattern recognition plots consists of 5 replicate batches (each batch containing duplicate measurements for each of 22 effector compounds) for each cell culture (10 strains). This is used to generate a 50 (columns)×22 (rows) matrix. The matrix is imported into MATLAB (Version 6.0). Factor analysis is performed using the MATLAB Chemometric Toolbox (Version 2.3) and involves the generation of reduced eigenvectors to determine the optimal number of factors, examination of the resulting residuals plots for randomness, and the generation of scores for the first four principle components.
# E. faecalis = assay: as above; assay type: cell-based, Enterococcus faecalis; details: for activity at 10000 µM: read-out: relative %-respiratory activity
# Description: as §3, §4
# E. aerogenes ATCC13048e = assay: as above; assay type: cell-based, Enterobacter aerogenes; details: for activity at 10000 µM: read-out: relative %-respiratory activity
# Description: as §3, §4
# E. coli B = assay: as above; assay type: cell-based; details: for activity at 10000 µM: effector 10 mM, read-out: relative %-respiratory activity
# Description: as §3, §4
# E. coli HB101 = assay: as above; assay type: cell-based
# Description: as §3, §4
# E. coli JM105 = assay: as above; assay type: cell-based
# Description: as §3, §4
# E. coli Neotype = assay: as above; assay type: cell-based; details: 5 μM DCIP, no effector = 100%, n = 26; for activity at 10000 µM: effector 10 mM, read-out: relative %-respiratory activity
# Description: as §3, §4
# P. aeruginosa = assay: as above; assay type: cell-based, Pseudomonas aeruginosa; details: for activity at 10000 µM: read-out: relative %-respiratory activity
# Description: as §3, §4
# S. aureus ATCC6538P = assay: as above; assay type: cell-based, Staphylococcus aureus; details: for activity at 10000 µM: read-out: relative %-respiratory activity
# Description: as §3, §4
# S. cerevisiae = assay: as above; assay type: cell-based, Saccharomyces cerevisiae; details: for activity at 10000 µM: read-out: relative %-respiratory activity
# Description: as §3, §4
# [2] = test system: Enterobacter aerogenes ATCC 13048e; assay: Respiration assay (Example 1), electrochemical ferricyanide/DCIP mediator consumption; assay type: cell-based; details: effector 10 mM; for slope: 5 μM DCIP, 50 mM ferricyanide, 35° C.; for normalized slope: area normalized; for relative activity: buffer set as 100%
# Method: as §1, §2
# Gram-positive bacteria = details: effector 1 mM instead of 1 mM glucose, relative to + DCIP
# Method: The following steps are used for each test: (1) preheating for a fixed time (4 min) and a fixed temperature (35° C.) a 150 μL aliquot of buffer containing 1 mM glucose (glc) with or without 5 μM DCIP; (2) this is followed by the addition of 50 μL of the bacterial suspension to the sample for a fixed time (10 min) and at a fixed temperature (35° C.); (3) this is followed by the addition of the mediator (50 μL of 0.4 M potassium ferricyanide) for a fixed time (10 min) and at a fixed temperature (35° C.); and (4) measurement of current at a fixed voltage difference (100 mV) between two platinum electrodes for a fixed time (120 sec) at a fixed temperature (35° C.). The final ferricyanide concentration in the sample prior to reaction with the microorganism is 40 mM.
# In this configuration the assay uses two platinum electrodes each having a surface area of approximately 0.03 cm^2. The measured current depends on the concentration of the least-concentrated species of the redox-couple in solution. […] The magnitude of the measured current indicates the quantity of the reduced mediator present in the assay solution. The measured current is integrated over time to produce a plot of total charge against time. The change in total charge is measured between 30 and 120 seconds after the potential is applied. […]
# [3] = Escherichia coli, 5 μM DCIP, no effector = 100%, n = 10
# [4] = Proteus vulgaris, ATCC6380, effector 10 mM, 5 μM DCIP, no effector = 100%, n = 20, read-out: relative %-respiratory activity
# [5] = Enterococcus faecalis, effector 10 mM, 5 μM DCIP, no effector = 100%, n = 20
# [6] = Klebsiella aerogenes, ATCC13048E, effector 10 mM, 5 μM DCIP, no effector = 100%, n = 26
# [7] = Escherichia coli, HB101, effector 10 mM, 5 μM DCIP, no effector = 100%, n = 18, read-out: relative %-respiratory activity
# [8] = Escherichia coli, JM105, effector 10 mM, 5 μM DCIP, no effector = 100%, n = 10, read-out: relative %-respiratory activity
# [9] = Pseudomonas aeruginosa, effector 10 mM, 5 μM DCIP, no effector = 100%, n = 18
# [10] = Staphylococcus aureus, ATCC6538P, effector 10 mM, 5 μM DCIP, no effector = 100%, n = 20
# [11] = Saccharomyces cerevisiae, effector 10 mM, 5 μM DCIP, no effector = 100%, n = 10
# [12] = effector 3 mM, 5 μM DCIP, no effector = 100%, n = 20
# [13] = effector 3 mM, 5 μM DCIP, no effector = 100%, n = 18
# [14] = effector 3 mM, 5 μM DCIP, no effector = 100%, n = 10
Structure (SMILES),slope [1],normalized slope [1],relative activity [1],activity at 10000 µM (E. coli B; [3]),activity at 10000 µM (E. coli Neotype; Escherichia coli),slope [2],normalized slope [2],relative activity [2],activity at 10000 µM (P. vulgaris ATCC6380; [4]),activity at 10000 µM (E. faecalis; [5]),activity at 10000 µM (E. aerogenes ATCC13048e; [6]),activity at 10000 µM (E. coli HB101; [7]),activity at 10000 µM (E. coli JM105; [8]),activity at 10000 µM (P. aeruginosa; [9]),activity at 10000 µM (S. aureus ATCC6538P; [10]),activity at 10000 µM (S. cerevisiae; [11]),also measured
N=C(N)NCCC[C@H](N)C(=O)O [L-arginine],9.1 μC/min,5.3 μC/min*mm^2,100%,137%,114%,,,,,,,,,,,,"activity at 10000 µM (P. vulgaris ATCC6380; Proteus vulgaris, ATCC6380, read-out: relative %-respiratory activity): 149%; activity at 10000 µM (E. faecalis; Enterococcus faecalis): 130%; activity at 10000 µM (E. aerogenes ATCC13048e; Klebsiella aerogenes, ATCC13048E): 129%; activity at 10000 µM (E. coli HB101; Escherichia coli, HB101, read-out: relative %-respiratory activity): 114%; activity at 10000 µM (E. coli JM105; Escherichia coli, JM105, read-out: relative %-respiratory activity): 163%; activity at 10000 µM (P. aeruginosa; Pseudomonas aeruginosa): 155%; activity at 10000 µM (S. aureus ATCC6538P; Staphylococcus aureus, ATCC6538P): 132%; activity at 10000 µM (S. cerevisiae; Saccharomyces cerevisiae): 139%"
"CC(O)C(=O)O (stereo not drawn) [Lactic acid, lactic acid]",24.8 μC/min,14.6 μC/min*mm^2,275%,192%,126%,27.7 μC/min,16.3 μC/min*mm^2,169%,457%,118%,182%,171%,303%,122%,622%,123%,
O=C(O)CCC(=O)O [Succinate],,,,,,,,,,,,,,,,,"relative %-respiratory activity (P. vulgaris ATCC6380; [12]): 520%; relative %-respiratory activity (E. faecalis; [12]): 87%; relative %-respiratory activity (E. aerogenes ATCC13048e; effector 3 mM, 5 μM DCIP, no effector = 100%, n = 26): 187%; relative %-respiratory activity (E. coli B): 134%; relative %-respiratory activity (E. coli HB101; [13]): 172%; relative %-respiratory activity (E. coli JM105; [14]): 287%; relative %-respiratory activity (E. coli Neotype; effector 3 mM): 127%; relative %-respiratory activity (P. aeruginosa; [13]): 102%; relative %-respiratory activity (S. aureus ATCC6538P; [12]): 167%; relative %-respiratory activity (S. cerevisiae; [14]): 108%; respiratory signals in the absence of 5 μM DCIP (Gram-positive bacteria): < 80%"
CC(=O)C(=O)O [Pyruvic acid],14.8 μC/min,8.7 μC/min*mm^2,164%,120%,126%,23.4 μC/min,13.7 μC/min*mm^2,143%,344%,136%,209%,169%,249%,125%,313%,109%,
C[C@H](O)[C@H](O)[C@@H](O)[C@@H](O)C=O [L-rhamnose],,,,,,,,,,,,,,,,,"activity at 20000 µM (P. vulgaris ATCC6380; Proteus vulgaris, ATCC6380, effector 20 mM, 5 μM DCIP, no effector = 100%, n = 20): 145%; activity at 20000 µM (E. faecalis; Enterococcus faecalis, effector 20 mM, 5 μM DCIP, no effector = 100%, n = 20): 105%; activity at 20000 µM (E. aerogenes ATCC13048e; Klebsiella aerogenes, ATCC13048E, effector 20 mM, 5 μM DCIP, no effector = 100%, n = 26): 110%; activity at 20000 µM (E. coli B; Escherichia coli, effector 20 mM, 5 μM DCIP, no effector = 100%, n = 10): 119%; activity at 20000 µM (E. coli HB101; Escherichia coli, HB101, effector 20 mM, 5 μM DCIP, no effector = 100%, n = 18): 103%; activity at 20000 µM (E. coli JM105; Escherichia coli, JM105, effector 20 mM, 5 μM DCIP, no effector = 100%, n = 10): 116%; activity at 20000 µM (E. coli Neotype; Escherichia coli, effector 20 mM): 105%; activity at 20000 µM (P. aeruginosa; Pseudomonas aeruginosa, effector 20 mM, 5 μM DCIP, no effector = 100%, n = 18): 94%; activity at 20000 µM (S. aureus ATCC6538P; Staphylococcus aureus, ATCC6538P, effector 20 mM, 5 μM DCIP, no effector = 100%, n = 20): 101%; activity at 20000 µM (S. cerevisiae; Saccharomyces cerevisiae, effector 20 mM, 5 μM DCIP, no effector = 100%, n = 10): 124%"
